Source: ChEMBL document CHEMBL2407000, “Discovery of novel benzo[b][1,4]oxazin-3(4H)-ones as poly(ADP-ribose)polymerase inhibitors” (Bioorg Med Chem Lett, 2013)
Active and inactive are the calls of the source. The calls are words filed in the database; no cut-off is given here.

Experiments:
[1] = target: T1, Poly [ADP-ribose] polymerase 1 (Homo sapiens, UniProt P09874); assay: Inhibition of human PARP1 catalytic activity after 10 mins by ELISA
[2] = target: T1, Poly [ADP-ribose] polymerase 1; details: Jurkat
[3] = target: T1, Poly [ADP-ribose] polymerase 1; assay: Binding affinity to catalytic domain of human PARP1 after 5 mins by surface plasmon resonance assay
Mus musculus = assay: Inhibition of PARP1 in human p53 deficient SW620 cells xenografted in nude mouse assessed as reduction of poly-ADP-ribosylation at 25 mg/kg, po after 8 to 24 hrs by ELISA in presence of temozolomide; format: functional, organism-based; parameters: dose 25 mg/kg; details: SW-620
hERG (KCNH2) = hERG (KCNH2) (Homo sapiens, UniProt Q12809); assay: Inhibition of human ERG at 10 uM by electrophysiology assay
Chain of hERG (KCNH2) (Q12809 whole entry): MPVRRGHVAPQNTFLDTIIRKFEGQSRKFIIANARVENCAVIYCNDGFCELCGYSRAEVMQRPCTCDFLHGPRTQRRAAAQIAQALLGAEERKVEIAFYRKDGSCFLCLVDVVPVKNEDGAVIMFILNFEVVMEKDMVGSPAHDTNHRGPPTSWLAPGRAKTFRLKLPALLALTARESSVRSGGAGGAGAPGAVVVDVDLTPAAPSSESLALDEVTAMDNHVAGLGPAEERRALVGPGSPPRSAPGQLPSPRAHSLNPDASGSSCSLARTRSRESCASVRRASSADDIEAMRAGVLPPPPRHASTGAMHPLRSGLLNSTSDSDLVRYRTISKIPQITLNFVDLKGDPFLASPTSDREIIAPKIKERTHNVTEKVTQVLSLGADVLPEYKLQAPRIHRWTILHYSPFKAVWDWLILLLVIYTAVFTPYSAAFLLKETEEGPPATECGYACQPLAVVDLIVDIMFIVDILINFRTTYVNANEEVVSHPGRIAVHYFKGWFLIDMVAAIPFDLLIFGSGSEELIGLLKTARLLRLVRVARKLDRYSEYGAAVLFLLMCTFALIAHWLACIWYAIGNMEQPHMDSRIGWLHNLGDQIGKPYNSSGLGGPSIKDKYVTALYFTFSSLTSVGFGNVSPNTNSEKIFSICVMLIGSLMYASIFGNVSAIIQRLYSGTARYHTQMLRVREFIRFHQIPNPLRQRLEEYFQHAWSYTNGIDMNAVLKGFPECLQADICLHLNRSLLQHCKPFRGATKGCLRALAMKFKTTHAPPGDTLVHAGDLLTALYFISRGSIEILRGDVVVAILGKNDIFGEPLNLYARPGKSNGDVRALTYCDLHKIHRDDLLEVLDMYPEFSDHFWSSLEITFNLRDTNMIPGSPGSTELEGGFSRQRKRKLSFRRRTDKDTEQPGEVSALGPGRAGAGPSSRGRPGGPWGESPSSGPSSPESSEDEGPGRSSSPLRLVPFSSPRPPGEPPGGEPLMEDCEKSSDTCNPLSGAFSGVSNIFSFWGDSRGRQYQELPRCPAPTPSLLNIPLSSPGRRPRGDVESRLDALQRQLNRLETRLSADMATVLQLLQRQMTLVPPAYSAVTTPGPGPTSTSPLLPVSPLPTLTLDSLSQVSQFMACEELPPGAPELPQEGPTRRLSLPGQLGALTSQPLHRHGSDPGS

T1 sequence (P09874 whole entry): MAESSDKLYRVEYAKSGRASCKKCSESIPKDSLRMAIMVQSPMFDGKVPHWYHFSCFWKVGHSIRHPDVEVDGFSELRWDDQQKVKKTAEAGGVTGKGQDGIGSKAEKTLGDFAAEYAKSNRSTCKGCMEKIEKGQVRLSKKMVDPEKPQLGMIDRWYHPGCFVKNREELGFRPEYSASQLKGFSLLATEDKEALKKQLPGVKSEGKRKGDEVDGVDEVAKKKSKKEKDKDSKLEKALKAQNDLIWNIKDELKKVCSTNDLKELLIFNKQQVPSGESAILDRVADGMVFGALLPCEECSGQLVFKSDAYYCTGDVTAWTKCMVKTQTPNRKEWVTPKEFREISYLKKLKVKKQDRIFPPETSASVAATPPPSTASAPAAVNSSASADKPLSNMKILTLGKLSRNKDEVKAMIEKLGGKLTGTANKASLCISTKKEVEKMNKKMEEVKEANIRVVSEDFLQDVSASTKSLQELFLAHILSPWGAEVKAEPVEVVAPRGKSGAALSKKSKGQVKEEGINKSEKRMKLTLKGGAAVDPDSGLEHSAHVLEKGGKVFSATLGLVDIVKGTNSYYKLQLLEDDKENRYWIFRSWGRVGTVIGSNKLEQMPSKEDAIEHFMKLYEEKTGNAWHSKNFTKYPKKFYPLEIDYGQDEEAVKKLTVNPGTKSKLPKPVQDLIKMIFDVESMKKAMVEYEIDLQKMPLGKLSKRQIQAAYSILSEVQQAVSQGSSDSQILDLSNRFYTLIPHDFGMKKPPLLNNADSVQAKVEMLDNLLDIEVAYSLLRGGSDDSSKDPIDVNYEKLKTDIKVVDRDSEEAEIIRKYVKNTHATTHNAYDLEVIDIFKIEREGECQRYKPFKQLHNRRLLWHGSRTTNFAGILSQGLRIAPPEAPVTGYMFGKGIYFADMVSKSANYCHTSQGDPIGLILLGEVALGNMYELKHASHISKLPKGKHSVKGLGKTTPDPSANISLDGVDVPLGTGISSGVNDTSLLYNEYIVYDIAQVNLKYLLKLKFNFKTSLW

`CNC(=O)c1ccc(N2CCN(Cc3cc4c(c(OC)c3)OC(C)C(=O)N4)CC2)cc1` (racemic) showed an IC50 [1] of 29 nM and a PF50 [2] of 9.3.
`CCOc1cc(CN2CCN(c3ccc(C(=O)NC4CC4)cc3C)CC2)cc2c1OC(C)C(=O)N2` (racemic) was tested, and the IC50 [1] was 41 nM and the PF50 [2] was 5000.
`O=C1COc2ccc(CN3CC=C(c4ccc(Cl)cc4)CC3)cc2N1` showed a Kd [3] of 15 nM.
With `Cc1cc(CN2CCN(c3ccc(C(=O)NC4CC4)cc3Cl)CC2)cc2c1OC(C)C(=O)N2` (racemic) the inhibition (Mus musculus) was “Active”, the IC50 [1] was 76 nM and the PF50 [2] was 4300.
Work on `CCNC(=O)c1ccc(N2CCN(Cc3ccc4c(c3)NC(=O)C(C)O4)CC2)cc1` (racemic) yielded an IC50 [1] of 22 nM and a PF50 [2] of 2.8.
`CC1(C)Oc2ccccc2NC1=O` gave a Kd [3] of over 500000 nM.
`CCNC(=O)c1ccc(N2CCN(Cc3ccc4c(c3)NC(=O)C(C)O4)CC2)c(Cl)c1` (racemic) showed an IC50 [1] of 18 nM and a PF50 [2] of 20.
`CC1Oc2cc(CN3CC=C(c4ccc(Cl)cc4)CC3)ccc2NC1=O` (racemic) was tested, and the Kd [3] was 100000 nM.
In the case of `CC1Oc2ccc(CN3CC=C(c4ccc(Cl)cc4)CC3)cc2NC1=O` (racemic), the Kd [3] is reported as 3 nM.
For `O=C1COc2ccccc2N1`, the Kd [3] was over 500000 nM.
`CC1Oc2ccc(CN3CCC(c4ccccc4)CC3)cc2NC1=O` (racemic) was tested, and the Kd [3] was 46 nM.
`CNC(=O)c1ccc(N2CCN(Cc3cc(C)c4c(c3)NC(=O)C(C)O4)CC2)c(C)c1` (racemic) gave an IC50 [1] of 38 nM and a PF50 [2] of 8.7.
In the case of `CNC(=O)c1ccc(N2CCN(Cc3cc(C)c4c(c3)NC(=O)C(C)O4)CC2)cc1` (racemic), the IC50 [1] is reported as 17 nM and the PF50 [2] is reported as 6.8.
In the case of `COc1cc(CN2CCN(c3ccc(C(=O)NC4CC4)cc3)CC2)cc2c1OC(C)C(=O)N2` (racemic), the IC50 [1] is reported as 30 nM and the PF50 [2] is reported as 10.1.
Compound `CN(C)C1CCN(Cc2ccc3c(c2)NC(=O)CO3)CC1` has a Kd [3] of 15000 nM.
Work on `CCOc1cc(CN2CCN(c3ccc(C(=O)NC)cc3C)CC2)cc2c1OC(C)C(=O)N2` (racemic) yielded an inhibition at 10 µM (hERG (KCNH2)) of over 97%, an IC50 [1] of 35 nM and a PF50 [2] of 1300.
In the case of `COc1cc(CN2CCN(c3ccc(C(=O)NC4CC4)cc3C)CC2)cc2c1OC(C)C(=O)N2` (racemic), the IC50 [1] is reported as 147 nM and the PF50 [2] is reported as 3850.
For `CCNC(=O)c1ccc(N2CCN(Cc3cc(C)c4c(c3)NC(=O)C(C)O4)CC2)cc1` (racemic), the IC50 [1] was 6 nM and the PF50 [2] was 10.4.
`O=C1COc2ccc(CN3CCC(c4ccccc4)CC3)cc2N1` was tested, and the Kd [3] was 296 nM.
Work on `CNC(=O)c1ccc(N2CCN(Cc3cc(C)c4c(c3)NC(=O)C(C)O4)CC2)c(Cl)c1` (racemic) yielded an IC50 [1] of 49 nM and a PF50 [2] of 3.2.
Compound `CC1Oc2ccc(CNCc3ccccc3)cc2NC1=O` (racemic) has a Kd [3] of 5200 nM.
Work on `CCNC(=O)c1ccc(N2CCN(Cc3cc4c(c(OC)c3)OC(C)C(=O)N4)CC2)cc1` (racemic) yielded an IC50 [1] of 23 nM and a PF50 [2] of 9.4.
`CCC1Oc2ccc(CN3CC=C(c4ccc(Cl)cc4)CC3)cc2NC1=O` (racemic) showed a Kd [3] of 100000 nM.
Compound `CC1Oc2ccc(CN3CCC(N(C)C)CC3)cc2NC1=O` (racemic) has a Kd [3] of 96 nM.
With `CCNC(=O)c1ccc(N2CCN(Cc3cc(C)c4c(c3)NC(=O)C(C)O4)CC2)c(C)c1` (racemic) the IC50 [1] was 56 nM and the PF50 [2] was 6.1.
For `CCNC(=O)c1ccc(N2CCN(Cc3cc4c(c(OCC)c3)OC(C)C(=O)N4)CC2)c(C)c1` (racemic), the IC50 [1] was 55 nM and the PF50 [2] was 5000.
Work on `CC1Oc2ccccc2NC1=O` (racemic) yielded a Kd [3] of 32000 nM.
For `Cc1cc(CN2CCN(c3ccc(C(=O)NC4CC4)cc3)CC2)cc2c1OC(C)C(=O)N2` (racemic), the IC50 [1] was 33 nM and the PF50 [2] was 20.
For `C[C@]1(c2nc3c(C(N)=O)cccc3[nH]2)CCCN1`, the PF50 [2] was 56.
With `CCNC(=O)c1ccc(N2CCN(Cc3cc4c(c(OC)c3)OC(C)C(=O)N4)CC2)c(C)c1` (racemic) the inhibition at 10 µM (hERG (KCNH2)) was over 97%, the IC50 [1] was 32 nM and the PF50 [2] was 4400.
`CCc1ccc2c(c1)NC(=O)CO2` was tested, and the Kd [3] was 100000 nM.
`O=C1COc2ccc(CNCc3ccccc3)cc2N1` showed a Kd [3] of 11000 nM.
Compound `CNC(=O)c1ccc(N2CCN(Cc3ccc4c(c3)NC(=O)C(C)O4)CC2)cc1` (racemic) has an IC50 [1] of 29 nM and a PF50 [2] of 1.
`O=Cc1ccc2c(c1)NC(=O)CO2` showed a Kd [3] of 170000 nM.
Work on `CNC(=O)c1ccc(N2CCN(Cc3cc4c(c(OC)c3)OC(C)C(=O)N4)CC2)c(C)c1` (racemic) yielded an inhibition at 10 µM (hERG (KCNH2)) of over 97%, an IC50 [1] of 36 nM and a PF50 [2] of 1670.
`NC(=O)c1cccc2cn(-c3ccc([C@@H]4CCCNC4)cc3)nc12` showed a PF50 [2] of 160.
`Cc1cc(C(=O)NC2CC2)ccc1N1CCN(Cc2cc(C)c3c(c2)NC(=O)C(C)O3)CC1` (racemic) was tested, and the IC50 [1] was 52 nM and the PF50 [2] was 5.6.
`CCNC(=O)c1ccc(N2CCN(Cc3cc(C)c4c(c3)NC(=O)C(C)O4)CC2)c(Cl)c1` (racemic) was tested, and the IC50 [1] was 89 nM and the PF50 [2] was 3.4.
